According to paper PMC8596843, “Platinum Cyclooctadiene Complexes with Activity against Gram‐positive Bacteria” (Chemmedchem, 2021):

System: human red blood cells
Assay: Haemolysis assay
Type: cell-based
Conditions: concentration inducing 10 % haemolysis
Procedure: As part of the CO‐ADD screening, all compounds that show any activity against a microbial strain are evaluated for their cytotoxicity against human embryonic kidney cells (HEK‐293) and for haemolysis against human red blood cells. None of the compounds tested for cytotoxicity (Pt1‐9 and Pd1) caused any significant cell death up to concentrations of 100 μM. […] We have also observed higher IC50 values for the methylated complexes Pt3 and Pt4 against HeLa cells in previous work.[16]
The resultant mid-log phase cultures were diluted
Gram-negative and Gram-positive bacteria, respectively.
final concentration range of 0.8 – 100 µM.
inhibitors as positive control.
Tamoxifen (Sigma T5648) was used
as internal control on each plate.
in a Neubauer haemocytometer.
incubated for 1 h at 37 °C, without shaking.
HC10 and HC50 (concentration at which 10%
for top, bottom and slope using Prism 8. […]

With CC[C@H](C)[C@H](NC(=O)CN)C(=O)NCC(=O)N[C@@H](C)C(=O)N[C@H](C(=O)N[C@@H](CC(C)C)C(=O)N[C@@H](CCCCN)C(=O)N[C@H](C(=O)N[C@@H](CC(C)C)C(=O)N[C@H](C(=O)N[C@H](C(=O)NCC(=O)N[C@@H](CC(C)C)C(=O)N1CCC[C@H]1C(=O)N[C@@H](C)C(=O)N[C@@H](CC(C)C)C(=O)N[C@H](C(=O)N[C@@H](CO)C(=O)N[C@@H](Cc1c[nH]c2ccccc12)C(=O)N[C@H](C(=O)N[C@@H](CCCCN)C(=O)N[C@@H](CCCNC(=N)N)C(=O)N[C@@H](CCCCN)C(=O)N[C@@H](CCCNC(=N)N)C(=O)N[C@@H](CCC(N)=O)C(=O)N[C@@H](CCC(N)=O)C(N)=O)[C@@H](C)CC)[C@@H](C)CC)[C@@H](C)O)[C@@H](C)O)C(C)C)C(C)C [Melittin, reference compound] as the compound, how does the “Haemolysis HC10” value read?
The value was 1.15 µM.
